# Assay results as given in patent US10953094B2, “Pulse photodynamic treatment of photodamaged skin” (GALDERMA RESEARCH & DEVELOPMENT, priority 2013, dated 2021).
# Key:
# [1] = Pulse exposure 30 min (Method A), investigation of efficacy and inflammation; format: in vivo; conditions: 30 min pulse exposure vs conventional 3-hour exposure
# Experimental: (§1) The formation of PPIX after 3 hours is seen in FIG. 8, and the relation to inflammation is seen in FIG. 9. […] The results are illustrated in Column 3 in FIGS. 4, 5, 6, and 7. […] Pain level is not changed.
# [2] = Same daylight PDT trial, pain VAS and skin reactions 1 week after sessions; format: in vivo, human
# Experimental: A double-blind randomized-controlled trial has been conducted to determine whether daylight PDT is an efficient method for treating photodamaged skin. […] Neither the investigator nor the patient knew which agent was administered, as it was applied by a trained professional nurse. To enhance product/placebo penetration a subtle abrasion with sandpaper of the whole face was performed. Also, a sunscreen (Cetaphil Dermacontrol SPF30®) was applied to the entire sun-exposed area including the treatment area in both groups during daylight-PDT, to avoid sunburn. […] Similarly, there were no statistical differences in the effects experimented by patients by patients one week after sessions, and in some of these variables no effect was found depending on each session (below table).
# facial photodamage = assay: Double-blind randomized-controlled trial of daylight PDT, efficacy in facial photodamage; format: in vivo, human
# Experimental: A double-blind randomized-controlled trial has been conducted to determine whether daylight PDT is an efficient method for treating photodamaged skin. […] Neither the investigator nor the patient knew which agent was administered, as it was applied by a trained professional nurse. To enhance product/placebo penetration a subtle abrasion with sandpaper of the whole face was performed. Also, a sunscreen (Cetaphil Dermacontrol SPF30®) was applied to the entire sun-exposed area including the treatment area in both groups during daylight-PDT, to avoid sunburn. Efficacy was evaluated after 1 month of the third (last) daylight session.
# [3] = Pulse time investigation (Method B), PPIX formation in healthy volunteers; format: in vivo, human; conditions: PPIX formation after 3 hours; pulse times 20, 40, 60, 180 min
# Experimental: as §1
# Twenty-four healthy male volunteers of Scandinavian ancestry were included in the study (mean age 30 years, range 20-51). A treatment area was selected on the inside of both forearms of the volunteer. Each treatment area was divided into four minor treatment fields of the size 2×5 cm with at least 3 cm between each field using a prefabricated flexible template. In order to imitate skin lesions all fields were tape stripped 10 times with occlusive dressing before treatment (Tegaderm™ Roll, 3M, Glostrup, Denmark). […]
# All fields were covered with light-impermeable, occlusive dressing. […] During and after illumination pain was recorded. […]
# 5-MAL-induced PpIX fluorescence was depicted non-invasively using a fluorescence camera (Medeikonos AB, Gothenburg, Sweden). The amount of PpIX fluorescence was calculated from the photographs by the program MatLab® (MatLab®, MathWorks, Natic, US). The amount of fluorescence was measured before tape stripping and cream application (baseline) and before and after illumination.
# The photo bleaching is then the difference in PpIX fluorescence (AU) calculated from the pre and post illumination images.
# [4] = reaction 1 week after session 1
# [5] = reaction 1 week after session 2
# [6] = reaction 1 week after session 3
# [7] = out of 30 subjects, 1 month after third daylight session
# [8] = specific photodamage severity score, 1 month after third session
compound,measurement,setting,value
"COC(=O)CCC(=O)CN [Metvix, methyl aminolevulinate]",Pain level,[1],not changed
same,inflammation (erythema),[1],clearly diminishes
same,"Pain VAS score, mean",[2]; after session 1,0.80
same,"Pain VAS score, median",[2]; after session 1,(0)
same,"Pain VAS score, mean",[2]; after session 2,0.60
same,"Pain VAS score, median",[2]; after session 2,(0)
same,"Pain VAS score, mean",[2]; after session 3,1.13
same,"Pain VAS score, median",[2]; after session 3,(0)
same,"Desquamation score 0, % of subjects",[2]; [4],(53.3%)
same,"Desquamation score 1, % of subjects",[2]; [4],(30%)
same,"Desquamation score 2, % of subjects",[2]; [4],(16.7%)
same,"Desquamation score 3, % of subjects",[2]; [4],(0%)
same,"Erythema score 0, % of subjects",[2]; [4],(66.7%)
same,"Erythema score 1, % of subjects",[2]; [4],(26.7%)
same,"Erythema score 2, % of subjects",[2]; [4],(6.7%)
same,"Erythema score 3, % of subjects",[2]; [4],(0%)
same,"Oedema score 0, % of subjects",[2]; [4],(100%)
same,"Oedema score 1, % of subjects",[2]; [4],(0%)
same,"Oedema score 2, % of subjects",[2]; [4],(0%)
same,"Oedema score 3, % of subjects",[2]; [4],(0%)
same,"Oozing score 0, % of subjects",[2]; [4],(100%)
same,"Oozing score 1, % of subjects",[2]; [4],(0%)
same,"Oozing score 2, % of subjects",[2]; [4],(0%)
same,"Oozing score 3, % of subjects",[2]; [4],(0%)
same,"Pigmentation score 0, % of subjects",[2]; [4],(96.7) %
same,"Pigmentation score 1, % of subjects",[2]; [4],(3.3%)
same,"Pigmentation score 2, % of subjects",[2]; [4],(0%)
same,"Pigmentation score 3, % of subjects",[2]; [4],(0%)
same,"Vesiculation score 0, % of subjects",[2]; [4],(100%)
same,"Vesiculation score 1, % of subjects",[2]; [4],(0%)
same,"Vesiculation score 2, % of subjects",[2]; [4],(0%)
same,"Vesiculation score 3, % of subjects",[2]; [4],(0%)
same,"Desquamation score 0, % of subjects",[2]; [5],(50%)
same,"Desquamation score 1, % of subjects",[2]; [5],(40%)
same,"Desquamation score 2, % of subjects",[2]; [5],(10%)
same,"Desquamation score 3, % of subjects",[2]; [5],(0%)
same,"Erythema score 0, % of subjects",[2]; [5],(63.3%)
same,"Erythema score 1, % of subjects",[2]; [5],(36.7%)
same,"Erythema score 2, % of subjects",[2]; [5],(0%)
same,"Erythema score 3, % of subjects",[2]; [5],(0%)
same,"Oedema score 0, % of subjects",[2]; [5],(100%)
same,"Oedema score 1, % of subjects",[2]; [5],(0%)
same,"Oedema score 2, % of subjects",[2]; [5],(0%)
same,"Oedema score 3, % of subjects",[2]; [5],(0%)
same,"Oozing score 0, % of subjects",[2]; [5],(100%)
same,"Oozing score 1, % of subjects",[2]; [5],(0%)
same,"Oozing score 2, % of subjects",[2]; [5],(0%)
same,"Oozing score 3, % of subjects",[2]; [5],(0%)
same,"Pigmentation score 0, % of subjects",[2]; [5],(96.7%)
same,"Pigmentation score 1, % of subjects",[2]; [5],(3.3%)
same,"Pigmentation score 2, % of subjects",[2]; [5],(0%)
same,"Pigmentation score 3, % of subjects",[2]; [5],(0%)
same,"Vesiculation score 0, % of subjects",[2]; [5],(100%)
same,"Vesiculation score 1, % of subjects",[2]; [5],(0%)
same,"Vesiculation score 2, % of subjects",[2]; [5],(0%)
same,"Vesiculation score 3, % of subjects",[2]; [5],(0%)
same,"Desquamation score 0, % of subjects",[2]; [6],(50%)
same,"Desquamation score 1, % of subjects",[2]; [6],(40%)
same,"Desquamation score 2, % of subjects",[2]; [6],(10%)
same,"Desquamation score 3, % of subjects",[2]; [6],(0%)
same,"Erythema score 0, % of subjects",[2]; [6],(76.7%)
same,"Erythema score 1, % of subjects",[2]; [6],(23.3%)
same,"Erythema score 2, % of subjects",[2]; [6],(0%)
same,"Erythema score 3, % of subjects",[2]; [6],(0%)
same,"Oedema score 0, % of subjects",[2]; [6],(100%)
same,"Oedema score 1, % of subjects",[2]; [6],(0%)
same,"Oedema score 2, % of subjects",[2]; [6],(0%)
same,"Oedema score 3, % of subjects",[2]; [6],(0%)
same,"Oozing score 0, % of subjects",[2]; [6],(100%)
same,"Oozing score 1, % of subjects",[2]; [6],(0%)
same,"Oozing score 2, % of subjects",[2]; [6],(0%)
same,"Oozing score 3, % of subjects",[2]; [6],(0%)
same,"Pigmentation score 0, % of subjects",[2]; [6],(86.7%)
same,"Pigmentation score 1, % of subjects",[2]; [6],(13.3%)
same,"Pigmentation score 2, % of subjects",[2]; [6],(10%)
same,"Pigmentation score 3, % of subjects",[2]; [6],(0%)
same,"Vesiculation score 0, % of subjects",[2]; [6],(100%)
same,"Vesiculation score 1, % of subjects",[2]; [6],(0%)
same,"Vesiculation score 2, % of subjects",[2]; [6],(0%)
same,"Vesiculation score 3, % of subjects",[2]; [6],(0%)
same,"facial improvement, number of subjects",facial photodamage; [7],14
same,"facial success, number of subjects",facial photodamage; [7],11
same,"Coarse lines: failure, % of subjects",facial photodamage; [8],(30%)
same,"Coarse lines: improvement, % of subjects",facial photodamage; [8],(50%)
same,"Coarse lines: sucess, % of subjects",facial photodamage; [8],(20%)
same,"Erythema: failure, % of subjects",facial photodamage; [8],(20%)
same,"Erythema: improvement, % of subjects",facial photodamage; [8],(53.3%)
same,"Erythema: sucess, % of subjects",facial photodamage; [8],(26.7%)
same,"Fine lines: failure, % of subjects",facial photodamage; [8],(20%)
same,"Fine lines: improvement, % of subjects",facial photodamage; [8],(43.3%)
same,"Fine lines: sucess, % of subjects",facial photodamage; [8],(36.7%)
same,"Mottled pigmentation: failure, % of subjects",facial photodamage; [8],(23.3%)
same,"Mottled pigmentation: improvement, % of subjects",facial photodamage; [8],(60%)
same,"Mottled pigmentation: sucess, % of subjects",facial photodamage; [8],(16.7%)
same,"Sallowness: failure, % of subjects",facial photodamage; [8],(16.7%)
same,"Sallowness: improvement, % of subjects",facial photodamage; [8],(30%)
same,"Sallowness: sucess, % of subjects",facial photodamage; [8],(53.3%)
same,"Tactile roughness: failure, % of subjects",facial photodamage; [8],(16.7%)
same,"Tactile roughness: improvement, % of subjects",facial photodamage; [8],(20%)
same,"Tactile roughness: sucess, % of subjects",facial photodamage; [8],(63.3%)
same,pulse exposure time at which PPIX concentration speeds up,[3],20 to 40 min
